The record followed here is US11485701B2, “Insect repellent compounds and compositions, and methods thereof” (Iowa State University Research Foundation, Inc., priority 2016, dated 2022).

One test deals with Aedes aegypti. The test can be described thus: Human skin testing, biting deterrence (BioGents test cage, treated nylon sleeve). The class given is in vivo. The method, then:
Female mosquitoes (Aedes aegypti) were reared according to the standard protocol at a temperature of 27.5±1° C., a relative humidity of 65-80% and a 12:12 hour photo period. The light period (450 Lux) was set from 7:00 to 19:00. After hatching from the eggs, larvae were kept in a water basin (30×30×10 cm) filled with a 1:1 mixture of tap- and deionized water with low oxygen content and fed with fish food flakes (Tetra Min®). Pupae were transferred to a cage (40×30×20 cm) provided with sugar solution (10% dextrose). Mosquitoes at an age of 5 to 10 days post-emergence were used for behavioral tests.
BioGents (BG) test cages are an in-house improvement of conventional test cages for the evaluation of mosquito repellents (Obermayr et al., “A Novel Test Cage with an Air Ventilation System as an Alternative to Conventional Cages for the Efficacy Testing of Mosquito Repellents,” J. Med. Entomol. 47:1116-22 (2010) which is hereby incorporated by reference in its entirety). The cages have a volume of 27.000 cm^3 (41×41×16 cm). Four sides of a cage are made of acrylic glass, the floor is made of metal sheet, and the rear side is covered by a gauze sleeve. The floor sheet is equipped with a test window (size: 56 cm^2; 14.8×3.8 cm) for the exposure of the treated skin. In between tests, BG cages are connected to a ventilation system that provides clean, warm, and humid air (26±1° C., 65±5% R.H.) to remove remaining host odours and repellent volatiles from the air inside the cage. In the presented study, the ventilation system was not applied as mosquitoes were only tested once and then discarded. Each treated sleeve was tested on a fresh batch of mosquitoes. Each cage was filled with populations of 30 mosquitoes, lured out of their rearing cages by a natural stimulus (human hand) to ensure that only host-seeking females are used for the repellent tests
All formulations have been stored at 4° C. Prior to testing, stock formulations were diluted v/v to final concentrations of 10% in 200 proof ethanol. […] For each test formulations, 2 pieces were prepared—one was treated, while the other one remained untreated and was worn between skin and treated nylon sleeve.
From each test formulation 5 ml were filled into 25 ml glass flasks; immediately afterwards stockings were folded into the flasks and pushed into the liquid formulation with a clean spatula. Flasks were sealed and incubated in the fridge overnight. On the consecutive day, one of the treated nylon pieces was removed from the flasks and left to dry on a clean paper towel for at least 10 minutes or until the ethanol had evaporated. The drying process was conducted at 27° C. and 65% to 80%. One untreated nylon sleeve was attached to the forearm followed by the treated sleeve.
Prior to a repellent efficacy test, the biting activity of the test mosquitoes was verified with the other, untreated forearm of a volunteer (wearing an untreated nylon sleeve). To keep biting pressure on the untreated skin low, a modified spacer covered with fine mosquito netting was used in control tests. Mosquitoes were still attracted to the skin odours and landed on the net, however they were not able to reach the skin and pierce it. A minimum of 10 landings had to be observed in 30 seconds during tests with Ae. aegypti. In case of lowered biting activities, 5 to 10 new mosquitoes were added to the cage or 30 new mosquitoes are used. […] The number of landing and biting mosquitoes was recorded. […]

Test [1] relates to Northern house mosquitoes (Culex pipiens). The test can be described thus: Long-term spatial repellency, static air repellency chamber, filter papers air-dried 5 hours. Conditions: Culex pipiens, 1 mL of 0.5% solution in acetone, air-dried 5 hours. In kind it is in vivo. In short, it runs like this:
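Adult female Culex pipiens, 5–7 days post-emergence, held at 27 °C, 80% RH and 16:8 light:dark, about 20 per replicate in a 9 × 60 cm glass static-air chamber. Filter paper treated with 0.5% compound in acetone and air-dried 5 h is placed at one end; acetone-only papers are the control. Percentage spatial repellency is scored from mosquito distribution at 15–150 min, 4 replicates.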

Where [2] appears, read: nylon treated with 10% in ethanol, max 2 min exposure, one volunteer.

“Also recorded” adds a separate entry of the source. Where two headings read alike, the source gives them in different places.

On to `CC(C)=CCCC(C)CC(=O)OCC(C)O` (centres unmarked) [Compound 2144, 2-hydroxypropyl citronellate], for which the Observations result in the test with Aedes aegypti (nylon treated with 10%) is “Repellent effects were clearly noticeable; also recorded: Visible repelient effects”. Also, in the test on Aedes aegypti (nylon treated with 10% in ethanol, bites per 120 sec), the Bites is 0/120 sec. Moreover, in the test with Aedes aegypti (setting [2]), the “Contacts: Landing (mosquitoes sits for >3 sec)” value is on record as 2. The “Contacts: Short touch-down” value with Aedes aegypti (setting [2]) came to 18. In addition, the bite reduction entry in the test on Aedes aegypti (nylon treated with 10%, versus untreated nylon) was “(100% bite reduction)”. The pest or weed control at 0.5 % in test [1] (0.25 h, 15 min, read-out: Long-term Percentage repellency 15 min) amounted to 12.5%; in test [1] (1.5 h, 90 min, read-out: Long-term Percentage repellency 90 min) it was 20%; in test [1] (2.5 h, 150 min, read-out: Long-term Percentage repellency 150 min) it was 35%.
